Values joined by “and” are separate entries in the source; they are usually repeats but may differ in a detail not shown here. Equal values may be shown once. Read-outs that look alike come from different tables or passages of the source.
How the values were obtained:
[1] = test system: Permethrin Susceptible C. quinquefasciatus; assay: Wind tunnel bioassay, adult mosquitoes (Example 4); assay type: in vivo, Culex quinquefasciatus
Protocol: In this bioassay, a wind tunnel bioassay was performed in New Mexico in March 2020. C. quinquefasciatus that were known to be resistant and susceptible to permethrin were used in the studies. […] Percent mortality was recorded at 15 minutes, 1 hour, 24 hours and 48 hours.

[2] = test system: Permethrin Resistant C. quinquefasciatus; assay: Wind tunnel bioassay, adult mosquitoes (Example 4); assay type: in vivo, Culex quinquefasciatus
Protocol: In this bioassay, a wind tunnel bioassay was performed in New Mexico in March 2020. C. quinquefasciatus that were known to be resistant and susceptible to permethrin were used in the studies. The following solutions were applied to adult C. quinquefasciatus mosquitoes: 1) 5% permethrin; 2) a mixture of 5% permethrin and, 1.5% abamectin; 3) a mixture of 5% permethrin, 1.5% abamectin and 1% C8, 9, 10 fatty acids; 4) a mixture of 5% permethrin and 1.5% ivermectin; and 5) a mixture of 5% permethrin, 1.5% ivermectin and 1% C8, 9, 10 fatty acids. Percent mortality was recorded at 15 minutes, 1 hour, 24 hours and 48 hours.

[3] = test system: Permethrin Resistant C. quinquefasciatus; assay type: in vivo
Protocol: (§1) If the ratio between the OCE of the mixture and the ECE of the mixture is greater than 1, then greater than expected interactions are present in the mixture. (Gisi, Synergistic Interaction of Fungicides in Mixtures, The American Phytopathological Society, 86:11, 1273-1279, 1996).
(§2) In this bioassay, a wind tunnel bioassay was performed in New Mexico in March 2020. C. quinquefasciatus that were known to be resistant and susceptible to permethrin were used in the studies. The following solutions were applied to adult C. quinquefasciatus mosquitoes: 1) 1.5% abamectin; 2) 1.5% ivermectin; 3) 5% pyrethrum; 4) a mixture of 5% pyrethrum and 1.5% abamectin; and 5) a mixture of 5% pyrethrum and 1.5% ivermectin. Percent mortality was recorded at 15 minutes, 1 hour, 24 hours and 48 hours.

[4] = test system: Permethrin Resistant A. aegypti (single KDR mutation); assay type: in vivo, Aedes aegypti
Protocol: (§3) In this bioassay, a wind tunnel bioassay was performed in New Mexico in July 2017. Aedes aegypti that were known to be resistant (single knockdown resistance (“KDR”) mutation) and susceptible to permethrin were used in the studies. The following solutions were applied to adult A. aegypti mosquitoes: 1) 1.5% abamectin; 2) 1.5% ivermectin; 3) 2% fenpropathrin; 4) a mixture of 2% fenpropathrin and 1.5% abamectin; 5) a mixture of 2% fenpropathrin and 1.5% abamectin; 6) a mixture of 2% fenpropathrin and 1.5% ivermectin; and 7) a mixture of 2% fenpropathrin and 1.5% ivermectin.
(§4) To determine if the mixtures provided unexpected results, the observed combined efficacy (“OCE”) was divided by the expected combined efficacy (“ECE”) wherein the expected ECE is calculated by the Abbott method: ECE=A+B−(AB/100), wherein ECE is the expected combined efficacy and in which A and B are the percent control given by the single active ingredients. If the ratio between the OCE of the mixture and the ECE of the mixture is greater than 1, then greater than expected interactions are present in the mixture. (Gisi, Synergistic Interaction of Fungicides in Mixtures, The American Phytopathological Society, 86:11, 1273-1279, 1996).

[5] = test system: Permethrin Susceptible C. quinquefasciatus; assay: Wind tunnel bioassay, adult mosquitoes (Example 5); assay type: in vivo
Protocol: as §1, §2

[6] = test system: Permethrin Susceptible A. aegypti; assay: Wind tunnel bioassay, adult mosquitoes (Example 1); assay type: in vivo
Protocol: as §3, §4

Compound | % Mortality ([1]; 1 Hr) [%] | % Mortality ([1]; 15 Min) [%] | % Mortality ([1]; 24 Hr) [%] | % Mortality ([1]; 48 Hr) [%] | % Mortality ([2]; 1 Hr) [%] | % Mortality ([2]; 15 Min) [%] | % Mortality ([2]; 24 Hr) [%] | % Mortality ([2]; 48 Hr) [%] | % Mortality ([3]; Example 5, 1 Hr) [%] | % Mortality ([3]; Example 5, 15 Min) [%] | % Mortality ([3]; Example 5, 24 Hr) [%] | % Mortality ([3]; Example 5, 48 Hr) [%] | % Mortality [4] | % Mortality ([5]; 1 Hr) [%] | % Mortality ([5]; 15 Min) [%] | % Mortality ([5]; 24 Hr) [%] | % Mortality ([5]; 48 Hr) [%] | % Mortality [6] [%]
CC1(C)C(C=C(Cl)Cl)C1C(=O)OCc1cccc(Oc2ccccc2)c1 (stereo not drawn) [5% permethrin, permethrin] | 100 | 65 | 100 | 100 | 78.8 | 0 | 65 | 66.3 |  |  |  |  |  |  |  |  |  | 
ivermectin [1.5% ivermectin] |  |  |  |  |  |  |  |  | 42.5 | 0 | 88.8 | 91.3 | 64% and 62.9% | 62.5 | 5 | 100 | 100 | 100
abamectin [1.5% abamectin] |  |  |  |  |  |  |  |  | 26.3 | 0 | 78.8 | 80 | 91% and 91.3% | 73.8 | 15 | 91.3 | 92.5 | 100
CC1(C)C(C(=O)OC(C#N)c2cccc(Oc3ccccc3)c2)C1(C)C (stereo not drawn) [2.0% fenpropathrin, fenpropathrin] |  |  |  |  |  |  |  |  |  |  |  |  | 76% and 75.8% |  |  |  |  | 99.6

— US11985976B2, “Mixture of mectins and pyrethroids and uses thereof” (Valent BioSciences LLC, priority 2020, dated 2024)
